Experiment [1] has as its target T1, FPR2 (Homo sapiens, UniProt P25090).
T1 construct: expressed in transfected cells; host or cells: HEK293F cells, pTT5 vector, co-transfected with GαΔ6qi4myr (1:2 w/w)
T1 sequence (P25090 1-351): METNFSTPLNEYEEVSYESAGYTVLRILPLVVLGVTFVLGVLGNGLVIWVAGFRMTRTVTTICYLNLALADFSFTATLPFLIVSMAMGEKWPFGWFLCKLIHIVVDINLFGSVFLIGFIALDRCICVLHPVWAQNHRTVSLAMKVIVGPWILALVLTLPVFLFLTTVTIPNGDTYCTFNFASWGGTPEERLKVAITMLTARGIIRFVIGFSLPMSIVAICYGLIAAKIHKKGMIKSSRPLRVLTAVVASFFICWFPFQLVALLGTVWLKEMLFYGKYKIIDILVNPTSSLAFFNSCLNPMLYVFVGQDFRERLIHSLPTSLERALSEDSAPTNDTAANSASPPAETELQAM
Nature of the experiment: Inositol-phosphate (IP) accumulation assay, FPR2 (wild type and mutants) with chimeric GαΔ6qi4myr in HEK293F cells. To be noted: FPR2 WT; mean ± SEM; SEM. Format: cell-based. The procedure: (§1) Flag-tagged wild-type FPR1 and FPR2 and mutants were cloned into the pTT5 vector and expressed in HEK293F cells. Cells were cotransfected with the plasmids of receptor and a chimeric Gα protein GαΔ6qi4myr, which redirects the Gαi signaling pathway to the Gαq phospholipase-C pathway, at a ratio of 1:2 (w/w), and were harvested 48 h post transfection. The cell-surface expression was measured as described above.
(§2) The IP-One Gq assay kit (Cisbio Bioassays, 62IPAPEB) was used to measure the peptide agonist-induced IP production. […] Then, the cells were supplemented with 3 μl cryptate-labeled anti-IP1 monoclonal antibody (1:20 diluted in lysis and detection buffer) and 3 μl d2-labeled IP1, and incubated at room temperature for another 1 h. […] The accumulation of IP1, EC50, and pEC50 were calculated using nonlinear regression (curve fit) according to a standard dose–response curve in GraphPad Prism 8.0 (GraphPad software).

For experiment [2], the target named is T2, FPR2 (Homo sapiens, UniProt P25090, F110A).
T2 construct: expressed in transfected cells; host or cells: HEK293F cells, pTT5 vector, co-transfected with GαΔ6qi4myr (1:2 w/w)
T2 sequence (P25090 1-351 F110A): T1 sequence (P25090 1-351) with F110A
The experiment is described as above. It is filed as cell-based. Particulars: FPR2 F110A. The procedure:
as §1, §2

SMILES strings stand for the structures. Residue numbers refer to the chain shown, from its start.

By EC50 is commonly meant the concentration needed to bring the measured effect to its halfway point. Low values mean higher potency in that assay, high ones lower potency in that assay.

For the compound `CC[C@H](C)[C@H](NC(=O)[C@H](CCC(=O)O)NC(=O)[C@H](CO)NC(=O)[C@@H](NC(=O)[C@H](CC(C)C)NC(=O)[C@H](CC(C)C)NC(=O)[C@H](CC(C)C)NC(=O)[C@H](CC(C)C)NC(=O)[C@H](CS)NC(=O)[C@H](CO)NC(=O)[C@H](Cc1ccccc1)NC(=O)CNC(=O)[C@H](CCCNC(=N)N)NC(=O)[C@@H]1CCCN1C(=O)[C@H](C)NC(=O)[C@H](CCSC)NC=O)[C@@H](C)O)C(=O)N[C@@H](CC(=O)O)C(=O)N[C@@H](CC(C)C)C(=O)N1CCC[C@H]1C(=O)N[C@H](C(=O)N[C@@H](CCCCN)C(=O)N[C@@H](CCCNC(=N)N)C(=O)N[C@@H](CCCNC(=N)N)C(=O)N[C@@H](C)C(=O)O)C(C)C` [fHN, N-formyl humanin], the figures for the EC50 on FPR2 [1] and at FPR2 [2] were 126 nM and 110 nM, respectively.

Values taken from PMC8976073 (Nature Communications, 2022).
